Results: US12624004B2 (Fudan University, priority 2019, dated 2026)

Tests used:
Female mice = test: In vivo hot plate method analgesia test; conditions: intraperitoneal; for Maximum percentage effective analgesic (% MPE): Table 1-2, hot plate 55° C.; for Maximum percentage effective analgesic (% MPE) / % MPE (5 mg/kg): 5 mg/kg dose; for ED50: Mus musculus, ip, Table 4-2, hot plate; for % MPE: Table 4-2, hot plate 55° C.; for % MPE / Maximum percentage effective analgesia (% MPE): 10 mg/kg dose; for % MPE (5 mg/kg): Table 2-2, hot plate 55° C.; for Maximum percentage effective analgesia (% MPE): Table 5-2, hot plate 55° C.
Procedure: Female mice weighing about 20 g were placed on a hot plate apparatus preheated to 55° C., and the latency of the hindfoot response of the mice was used as the pain threshold indicator. Animals were screened before the experiment, and those with response latency less than 5 s or more than 30 s were excluded. To prevent foot scalding, the maximum observation time was set at 60 s. The basal pain threshold was the average of two measurements, with a 5-min interval between measurements. pain thresholds were measured at 15 m, 30 m, 60 m and 120 m after intraperitoneal injection in each group of mice. The percentage effective analgesia (% MPE) was calculated according to the following formula: percentage effective analgesia (% MPE) (post-dose latency−pre-dose latency)/(60−pre-dose latency)×100%. ED50 values were calculated based on the effective percentage of analgesia using the software Graphpad prism 5.0 software.
(§1) Female mice weighing about 20 g were placed on a hot plate apparatus preheated to 55° C., and the latency of the hindfoot response of the mice was used as the pain threshold indicator. Animals were selected before the experiment, and those with response latency less than 5 s or greater than 30 s were excluded. To prevent foot scalding, the maximum observation time was set at 60 s. The basal pain threshold was the average of two measurements, with a 5-min interval between measurements. pain thresholds were measured at 15 min, 30 min, 60 min and 120 min after intraperitoneal administration in each group of mice. The percentage of analgesic effectiveness (% MPE) was calculated according to the following equation. Percentage of effective analgesia (% MPE)_(Pre-dose incubation period−Incubation period after drug administration)/(60-Pre-dose incubation period)×100%. ED50 values were calculated based on the effective percentage of analgesia using GraphPad prism 5.0 software.
as §1, with “were screened” for “were selected”, “measurements. Pain” for “measurements. pain”, “following formula.” for “following equation. Percentage of effective analgesia (% MPE)_(Pre-dose incubation period−Incubation period after drug administration)/(60-Pre-dose incubation period)×100%. ED50 values were calculated based on the effective percentage of analgesia using GraphPad prism 5.0 software.”
ED50 values were calculated based on the effective percentage of analgesia using Graphpad Prism 5.0.
Female mice weighing about 20 g were placed on a hot plate apparatus preheated to 55° C., and the latency of the hindfoot response of the mice was used as the pain threshold indicator. Animals were screened before the experiment, and those with response latency less than 5 s or more than 30 s were excluded. To prevent foot scalding, the maximum observation time was set at 60 s. The basal pain threshold was the average of two measurements, with a 5-min interval between measurements. pain thresholds were measured at 15 min, 30 min, 60 min and 120 min after intraperitoneal administration in each group of mice. The analgesic effective percentage (% MPE) was calculated according to the following formula: analgesic effective percentage (% MPE)=(latency after drug administration−latency before drug administration)/(60−latency before drug administration)×100%. ED50 values were calculated based on the effective percentage of analgesia using the software Graphpad prism 5.0.
Female mice weighing about 20 g were placed on a hot plate apparatus preheated to 55° C. and the latency of the hindfoot response was used as an indicator of pain threshold. […]

μ opioid receptor = biological target: T1, μ opioid receptor (Homo sapiens, UniProt P35372); test: Competition binding assay on membranes of CHO cells expressing μ opioid receptor, [3H]-labeled ligand; conditions: Table 5-1; read-out: μOR Ki
T1 construct: expressed in transfected cells; host or cells: CHO cells (membranes)
Procedure: (§2) CHO cells expressing p opioid receptor, δ opioid receptor and κ opioid receptor were cultured in 10 cm^2 culture dishes (F-12 medium+10% neonatal bovine serum) for several days, and the culture fluid was aspirated after the cells had grown to the bottom of the dishes; 3 ml of PBS/EDTA solution (0.1M NaCl, 0.01M NaH2PO4, 0.04% EDTA) was added to digest the cells for 3-5 min. Add ice-cold homogenate (50 mM HEPES PH 7.4, 3 mM MgCl, 1 mM EGTA) to the centrifuge tube, transfer the solution and sediment to a homogenizer and homogenize; then transfer the homogenate to a centrifuge tube and centrifuge at 18000 rpm. Centrifuge for 15 min, two times; the obtained precipitate was homogenized with appropriate amount of 50 mM Tris-HCl, pH 7.4 buffer and divided into centrifuge tubes and stored at −70° C. in the refrigerator until use.
(§3) The total binding tube was spiked with 20-30 μg of the expressed membrane receptor protein and […] ligand (1-2 nM), the corresponding non-specific binding tube was spiked with 1 μM of the corresponding ligand, and the sample tubes were spiked with various screened opioid ligands in a final volume of […], incubated at 30° C. for 30 min, and the reaction was terminated in ice water. […] The samples were filtered under negative pressure through GF/C (whatman) glass fiber filter paper on a Millipore sample collector. The reaction was rinsed three times with 4 ml of 50 mMV Tris-HCl (pH 7.4), the filter paper was dried and placed in 0.5 ml Eppendorf tubes with 0.5 ml of lipophilic scintillation solution, the radioactivity was measured by PERKIN ELMER PRI-CARB 2910 liquid scintillation counter and the inhibition rate was calculated. Inhibition rate (or binding rate)=(total binding rate dpm−sample tube dpm)/(total binding tube dpm−non-specific binding tube dpm)×100%
(§4) IC50 was calculated using Prism 5.0 software. the Ki value was calculated as follows, Ki=IC50/(1+[IL]/Kd), [lL] is the concentration of the added labeled ligand and Kd is the equilibrium dissociation parameter of the labeled ligand.
(§5) CHO cells expressing p opioid receptor, δ opioid receptor and κ opioid receptor were cultured in a 10 cm^2 culture dish (F-12 medium+10% neonatal bovine serum) for several days, and the culture fluid was aspirated after the cells grew to the bottom of the dish. 3 mL PBS/EDTA solution (0.1 M NaCl, 0.01 M NaH2PO4, 0.04% EDTA) was added to digest the cells for 3˜5 min, blew with a pipette to completely dislodge the cells. The cells were collected in a 40 mL centrifuge tube, centrifuged at 5000 rpm for 5 min. The supernatant was removed and the ice-cold homogenate (50 mM HEPES pH 7.4, 3 mM MgCl2, 1 mM EGTA) was added to the centrifuge tube. The solution and the precipitate were transferred to a homogenizer. Then the homogenate was transferred to a centrifuge tube and centrifuged at 18000 rpm for 15 min. The precipitate was centrifuged twice at 18000 rpm for 15 min. The obtained precipitate was homogenized by adding appropriate amount of 50 mM Tris-HCl, pH 7.4 buffer and divided into centrifuge tubes and stored at −70° C. in the refrigerator until use.
(§6) The total binding tube was added with 20-30 μg of expressed membrane receptor protein and [3H]-labeled ligand (1-2 nM). The corresponding non-specific binding tube was added with 1 μM of the corresponding ligand, and the sample tubes were added with various screened opioid ligands in a final volume of 100 μL. All of them were incubated for 30 min at 30° C., and the reaction was terminated in ice water. The samples were filtered under negative pressure through GF/C (Whatman) glass fiber filter paper on a Millipore sample collector. The reaction was rinsed three times with 4 mL of 50 mM Tris-HCl (pH 7.4), the filter paper was dried and placed in 0.5 mL Eppendorf tubes with 0.5 mL of lipophilic scintillation solution. […]

δ opioid receptor = biological target: T2, δ opioid receptor (Homo sapiens, UniProt P41143); test: Competition binding assay on membranes of CHO cells expressing δ opioid receptor, [3H]-labeled ligand; conditions: Table 5-1; read-out: δOR Ki
T2 construct: expressed in transfected cells; host or cells: CHO cells (membranes)
Procedure: as §2, §3, §4, §5, §6

κ opioid receptor = biological target: T3, κ opioid receptor (Homo sapiens, UniProt P41145); test: Competition binding assay on membranes of CHO cells expressing κ opioid receptor, [3H]-labeled ligand; conditions: Table 5-1; read-out: κOR Ki
T3 construct: expressed in transfected cells; host or cells: CHO cells (membranes)
Procedure: as §2, §3, §4, §5, §6

## COc1cccc(C2(OC(=O)c3ccccc3)CCC(N(C)S(=O)(=O)Cc3ccccc3)CC2CN(C)C)c1.Cl (stereo not drawn)
Female mice
  Maximum percentage effective analgesic (% MPE): 37.2%

## COc1cccc(C2(OC(=O)c3ccccc3)CCC(N(C)S(=O)(=O)Cc3cccc(Cl)c3)CC2CN(C)C)c1.Cl (stereo not drawn)
Female mice
  Maximum percentage effective analgesic (% MPE): 0%

## COc1cccc([C@]2(O)CCN(C(=O)Cc3cc(F)c(F)cc3F)CC2CN(C)C)c1.Cl (stereo partly drawn)
Female mice
  ED50: 0.54 mg/kg

## CN(C)C[C@@H]1CN(C(=O)Cc2cc(F)c(F)cc2F)CC[C@@]1(O)c1cccc(O)c1.Cl
Female mice
  % MPE: 29.7%

## COc1cccc([C@@]2(O)CCN(C(=O)Cc3cc(F)c(F)cc3F)C[C@@H]2CN(C)C)c1.Cl
Female mice
  % MPE: 10.5%

## CN(C)CC1CN(S(=O)(=O)Cc2ccccc2)CCC1(O)c1cccc(OC(F)(F)F)c1.Cl (stereo not drawn)
Female mice
  % MPE (5 mg/kg): 20.2%

## COc1cccc(C2(OC(F)F)CCN(S(=O)(=O)Cc3ccccc3)CC2CN(C)C)c1.Cl (stereo not drawn)
Female mice
  % MPE (5 mg/kg): 8.38%

## COc1cccc(C2(O)CCC(NS(=O)(=O)Cc3cccc(Cl)c3)CC2CN(C)C)c1.Cl (stereo not drawn) [1-(3-Chlorophenyl)-N-(3-((dimethylamino)methyl)-4-hydroxy-4-(3-methoxyphenyl)cyclohexyl)methanesulfonamide hydrochloride]
Female mice
  Maximum percentage effective analgesic (% MPE): 15.2%

## COc1cccc(C2(O)CCC(NS(=O)(=O)c3cccc(Cl)c3)CC2CN(C)C)c1.Cl (stereo not drawn) [3-Chloro-N-(3-((dimethylamino)methyl)-4-hydroxy-4-(3-methoxyphenyl)cyclohexyl)benzenesulfonamide hydrochloride]
Female mice
  Maximum percentage effective analgesic (% MPE): 11.7%

## COc1cccc(C2(OC(=O)c3ccccc3)CCC(NS(=O)(=O)c3cccc(Cl)c3)CC2CN(C)C)c1.Cl (stereo not drawn) [4-((3-Chlorophenyl)sulfonylamino)-2-((dimethylamino)methyl)-1-(3-methoxyphenyl)cyclohexyl benzoate hydrochloride]
Female mice
  Maximum percentage effective analgesic (% MPE): 11.6%

## COc1cccc(C2(O)CCC(S(=O)(=O)Cc3ccccc3)CC2CN(C)C)c1.Cl (stereo not drawn) [4-(Benzylsulfonyl)-2-((dimethylamino)methyl)-1-(3-methoxyphenyl)cyclohexane-1-ol hydrochloride]
Female mice
  Maximum percentage effective analgesic (% MPE): 21.7%

## COc1cccc([C@]2(O)CCN(S(=O)(=O)Cc3ccccc3)C[C@H]2CN(C)C)c1.Cl [(3R,4S)-1-(Benzylsulfonyl)-3-((dimethylamino)methyl)-4-(3-methoxyphenyl)piperidin-4-ol hydrochloride]
Female mice
  ED50: 0.49 mg/kg

## COc1cccc(C2(O)CCN(C(=O)CCc3cccc(C(F)(F)F)c3)CC2CN(C)C)c1.Cl (stereo not drawn) [FWBE10, 1-(3-((Dimethylamino)methyl)-4-hydroxy-4-(3-methoxyphenyl)piperidin-1-yl)-3-(3-(trifluoromethyl)phenyl)propyl-1-one hydrochloride]
Female mice
  Maximum percentage effective analgesia (% MPE): 17.33%
μ opioid receptor
  Ki: 219 ± 9.8 nM
δ opioid receptor
  Ki: > 10000 nM

## COc1cccc(C2(O)CCN(C(=O)Cc3cccc(Br)c3)CC2CN(C)C)c1.Cl (stereo not drawn) [FWBE11, 2-(3-Bromophenyl)-1-(3-((dimethylamino)methyl)-4-hydroxy-4-(3-methoxyphenyl)piperidin-1-yl)ethyl-1-one hydrochloride]
Female mice
  Maximum percentage effective analgesia (% MPE): 98.31%
μ opioid receptor
  Ki: 57.6 ± 0.1 nM
δ opioid receptor
  Ki: > 10000 nM

## COc1cccc(C2(O)CCN(C(=O)Cc3c[nH]c4ccccc34)CC2CN(C)C)c1 (stereo not drawn) [FWBE13, 1-(3-((Dimethylamino)methyl)-4-hydroxy-4-(3-methoxyphenyl)piperidin-1-yl)-2-(1H-indol-3-yl)ethyl-1-one]
Female mice
  Maximum percentage effective analgesia (% MPE): 66.95%
κ opioid receptor
  Ki: 3100 ± 79.5 nM
μ opioid receptor
  Ki: 115 ± 4.1 nM

## COc1cccc(C2(O)CCC(NS(=O)(=O)c3ccccc3)CC2CN(C)C)c1.Cl (stereo not drawn) [N-(3-((Dimethylamino)methyl)-4-hydroxy-4-(3-methoxyphenyl)cyclohexyl)benzenesulfonamide hydrochloride]
Female mice
  Maximum percentage effective analgesic (% MPE): 10.3%

## COc1cccc(C2(O)CCC(N(Cc3ccccc3)S(=O)(=O)c3cccc(Cl)c3)CC2CN(C)C)c1.Cl (stereo not drawn) [N-Benzyl-3-chloro-N-(3-((dimethylamino)methyl)-4-hydroxy-4-(3-methoxyphenyl)cyclohexyl)benzenesulfonamide hydrochloride]
Female mice
  Maximum percentage effective analgesic (% MPE): 6%

## COc1cccc(C2(O)CCC(N(Cc3ccccc3)S(=O)(=O)c3ccccc3)CC2CN(C)C)c1.Cl (stereo not drawn) [N-Benzyl-N-(3-((dimethylamino)methyl)-4-hydroxy-4-(3-methoxyphenyl)cyclohexyl)benzenesulfonamide hydrochloride]
Female mice
  Maximum percentage effective analgesic (% MPE): 0%
